Where “and” joins values, the source holds several entries; their conditions need not be identical. Identical values can stand only once. Like-named read-outs stand apart in the source and are kept apart here. Marks after values point to notes of the source that are not given here.
What was measured:
[1] = tested on: Huh-7 cells; conditions: human
[2] = tested on: HCoV-229E; test: microbe, parasite or virus in culture; type: cell-based, human coronavirus alpha-229E; conditions: for EC50: Huh-7, read-out: Neutral Red Assay EC50
[3] = tested on: human nasal epithelial cells
[4] = tested on: human bronchial epithelial cells
[5] = tested on: human bronchial epithelial cells; test: Triphosphate levels in human bronchial epithelial cells after 8 h exposure and washout; conditions: for Mean Intracellular Compound 1-6 Concentration: bronchial cells, 10 μM Compound 1A for 8 h
[6] = tested on: human hepatocytes; test: Triphosphate levels in human hepatocytes; type: in vitro ADME; conditions: for Mean Intracellular Compound 1-6 Concentration: human hepatocytes, 10 μM Compound 1A
[7] = Lung, kidney and liver tissue levels in non-human primates after oral Compound 2A; type: in vivo, cynomolgus monkeys; conditions: for half-life: after oral Compound 2A 30 mg/kg BID for 3 days; for trough (12 h) tissue level: 12 hours after the last dose of Compound 2A
Procedure: (This corresponds to 55 ng/g (lung), 57 ng/g (kidney), and 43 ng/g (liver)). […] Plasma tough level of Compound 1-7, the surrogate for Compound 1-6 in plasma, was 39 ng/mL.

[8] = Prediction of human tissue levels of triphosphate from monkey tissue levels
Procedure: Based on the ratio (7.0) of human to monkey concentrations of triphosphate Compound 1-6 as assessed by its in vitro formation in primary hepatocytes, the predicted human tissue level was determined.

[9] = tested on: monkey hepatocytes; test: Triphosphate levels in monkey hepatocytes; type: in vitro ADME; conditions: 10 μM Compound 1A
[10] = tested on: human nasal epithelial cells; test: Triphosphate levels in human nasal epithelial cells after 8 h exposure and washout
[11] = tested on: HCV; conditions: HCV-infected subjects, cited from earlier work
[12] = in vivo; conditions: cynomolgus, cynomolgus monkey, po
[13] = Plasma PK of metabolites in non-human primates after oral Compound 2A; conditions: cynomolgus, cynomolgus monkey, in vivo, 30 mg/kg
[14] = tested on: mock infected MES-1 cells; test: Cytotoxicity in mock infected MES-1 cells (MTT); type: cell-based; conditions: 3 days, Table 3B
Procedure: (§1) To determine the cytotoxicity, cells were seeded at an initial density of 1×10^6 cells/mL in 96 well plates containing Minimum Essential Medium with Earles's salts (MEM-E), L-glutamine, 1 mM sodium pyruvate and 25 mg/L kanamycin, supplemented with 10% fetal bovine serum. Cell cultures were then incubated at 37° C. in a humidified 5% CO2 atmosphere in the absence or presence of serial dilutions of test compounds. Cell viability was determined by the MTT method.

[15] = Cytotoxicity in mock infected MES-1 cells (MTT); type: cell-based; conditions: Table 3A
Procedure: as §1

[16] = Cytotoxicity in mock infected BHK-21 cells (MTT); type: cell-based, hamster; conditions: hamster
Procedure: as §1
(§2) BHK-21 cells: Test compounds were dissolved in DMSO at 100 mM and then diluted in Minimum Essential Medium with Earle's salts (MEM-E) containing 1 mM sodium pyruvate and 25 μg/mL kanamycin, supplemented with 10% FBS (growth medium) to final concentrations of 100, 20, 4 and 0.8 μM (two 24-well replica plates each). After BHK-21 cells were grown to confluency in 96-well plates, growth medium was replaced with fresh maintenance medium (growth medium with 1% inactivated FBS in place of 10% FBS) containing serially diluted test compound and HCoV-229E at a multiplicity of infection (MOI) of 0.01. Uninfected cells in the presence of serially diluted compound were used to assess the cytotoxicity of compounds. After a 3-day incubation at 37° C. in a humidified 5% CO2 atmosphere, cell viability was determined by the MTT method (Pauwels, R et al. J. Virol. Methods 20(4):309-321 (1988)).

[17] = tested on: mock infected BHK cells; test: Cytotoxicity in mock infected BHK-21 cells (MTT); type: cell-based, hamster; conditions: mock infected BHK cells; MTT; 3 days; Table 2B
Procedure: as §1, §2

[18] = tested on: HCoV-229E; test: Protection of BHK-21 cells from virus-induced cytopathogenicity (MTT); type: cell-based, human coronavirus; conditions: Human coronavirus 229E, read-out: EC50
Procedure: (§3) After a 3-day incubation at 37° C. cell viability was determined by the MTT method as described by Pauwels et al. (J. Virol. Methods 1988, 20, 309-321).
In an initial screening, BHK-21 cells acutely infected with a seasonal human alpha coronavirus, HCoV-229E, were exposed to serial dilutions of Compound 1A. […] No toxicity was detected from either drug.
as §2

[19] = tested on: HCoV; test: Protection of MES-1 cells from virus-induced cytopathogenicity (MTT); type: cell-based; conditions: unidentified human coronavirus, 72 h, 50% protection of MES-1 cells, day 3 post-infection
Procedure: as §3

[20] = in vitro; conditions: human
[21] = tested on: SARS-CoV-2 (WA1); test: microbe, parasite or virus in culture; type: cell-based; conditions: for EC90: Severe acute respiratory syndrome coronavirus 2, HAE
[22] = Human coronavirus 229E, Huh-7, read-out: Virus Yield Reduction Assay EC90
[23] = read-out: Virus Yield Reduction Assay EC90
[24] = mock infected BHK-21 cells, mock infected BHK cells, MTT, 3 days, Table 2A
[25] = BHK, 72 h, 50% protection of BHK cells, MTT, day 3 post-infection, Table 2A
[26] = BHK, 72 h, 50% protection of BHK cells, MTT, day 3 post-infection, Table 2B

Structure (SMILES): CCN(CCO)CCCC(C)Nc1ccnc2cc(Cl)ccc12 (stereo not drawn) [hydroxychloroquine, reference compound]
- CC50 [1]: 26 µM
- Selectivity Index (CC50/EC50) [2]: 3.5^c
- EC50 ([2]; Human coronavirus 229E): 7.4 µM
- EC90 [2, 22]: < 0.05 µM
- EC90 [2, 23]: < 0.048 µM

Structure (SMILES): CCN(CC)CCCC(C)Nc1ccnc2cc(Cl)ccc12 (stereo not drawn) [chloroquine, reference compound]
- CC50 [1]: 21 µM
- EC50 ([2]; Human coronavirus 229E): 8.1 µM
- EC90 [2, 22]: < 0.05 µM

Structure (SMILES): Nc1ccn([C@@H]2O[C@@](CO)(CCl)[C@@H](O)[C@H]2F)c(=O)n1 [ALS-8112]
- ratio of triphosphate from Compound 1A vs. the named drug [3]: 3
- ratio of triphosphate from Compound 1A vs. the named drug [4]: 5

Structure (SMILES): C[C@@]1(F)[C@H](O)[C@@H](COP(=O)(O)OP(=O)(O)OP(=O)(O)O)O[C@H]1n1cnc2c(=O)[nH]c(N)nc21 [Compound 1-6]
- Mean Intracellular Compound 1-6 Concentration ([5]; 15 h after washout): 560 µM
- Mean Intracellular Compound 1-6 Concentration ([5]; 48 h after washout): 290 µM
- half-life ([5]; intracellular triphosphate in bronchial cells after exposure to 10 μM Compound 1A): 39 h
- half-life ([5]; intracellular triphosphate in bronchial epithelial cells after Compound 1A): over 1.5 days
- half-life ([5]; intracellular triphosphate in bronchial epithelial cells after Compound 1A, listed as active triphosphate species): greater than 1.5 days
- ratio of human to monkey hepatocyte triphosphate concentrations ([6]; assessed by AUC0-24 values): 7 fold and 7.0 fold
- Mean Intracellular Compound 1-6 Concentration ([6]; incubation 2 h): 14 µM
- Mean Intracellular Compound 1-6 Concentration ([6]; incubation 4 h): 22 µM
- Mean Intracellular Compound 1-6 Concentration ([6]; incubation 8 h): 26 µM
- Mean Intracellular Compound 1-6 Concentration ([6]; incubation 24 h): 17 µM
- half-life ([7]; monkey kidney tissue): 8.0 h
- trough (12 h) tissue level ([7]; monkey kidney): 57 ng/g
- Mean Intracellular Compound 1-6 Concentration ([7]; monkey kidney, 12 h post last dose of Compound 2A): 0.13 µM
- Mean Intracellular Compound 1-6 Concentration ([7]; monkey kidney, 24 h post last dose of Compound 2A): 0.032 µM
- Mean Intracellular Compound 1-6 Concentration ([7]; monkey kidney, 48 h post last dose of Compound 2A): 0.004 µM
- half-life ([7]; monkey liver tissue): 4.3 h
- trough (12 h) tissue level ([7]; monkey liver): 43 ng/g
- Mean Intracellular Compound 1-6 Concentration ([7]; monkey liver, 12 h post last dose of Compound 2A): 0.09 µM and 0.089 µM
- Mean Intracellular Compound 1-6 Concentration ([7]; monkey liver, 24 h post last dose of Compound 2A): 0.021 µM
- Mean Intracellular Compound 1-6 Concentration ([7]; monkey liver, 48 h post last dose of Compound 2A): Not Detected
- half-life ([7]; monkey lung tissue): 9.4 h
- trough (12 h) tissue level ([7]; monkey lung): 55 ng/g
- Mean Intracellular Compound 1-6 Concentration ([7]; monkey lung, 12 h post last dose of Compound 2A): 0.14 µM
- Mean Intracellular Compound 1-6 Concentration ([7]; monkey lung, 24 h post last dose of Compound 2A): 0.037 µM
- Mean Intracellular Compound 1-6 Concentration ([7]; monkey lung, 48 h post last dose of Compound 2A): 0.009 µM
- triphosphate concentration in the lung compared to the liver ([7]; monkey, 12-hour steady-state trough, oral Compound 2A 30 mg/kg BID): 1.6 fold
- Predicted Intracellular Triphosphate 1-6 Conc. at 12 hours Post-dose [8]: 0.62 µM and 0.91 µM and 0.98 µM
- predicted human lung intracellular level at trough (12 h) relative to in vitro EC90 ([8]; 1100 mg LD + 550 mg BID, EC90 against SARS-CoV-2 in HAE cell cultures): above the in vitro EC90
- Mean Intracellular Compound 1-6 Concentration ([9]; incubation 2 h): 2.1 µM
- Mean Intracellular Compound 1-6 Concentration ([9]; incubation 4 h): 3.1 µM
- Mean Intracellular Compound 1-6 Concentration ([9]; incubation 8 h): 2.9 µM
- Mean Intracellular Compound 1-6 Concentration ([9]; incubation 24 h): 1.7 µM
- half-life ([10]; intracellular triphosphate in nasal cells after exposure to 10 μM Compound 1A): 38 h
- half-life ([10]; intracellular triphosphate in nasal epithelial cells after Compound 1A): over 1.5 days
- half-life ([10]; intracellular triphosphate in nasal epithelial cells after Compound 1A, listed as active triphosphate species): greater than 1.5 days
- Mean Intracellular Compound 1-6 Concentration ([10]; nasal cells, 10 μM Compound 1A for 8 h, 24 h after washout): 170 µM

Structure (SMILES): CNc1nc(N)nc2c1ncn2[C@@H]1O[C@H](CO[P@@](=O)(N[C@@H](C)C(=O)OC(C)C)Oc2ccccc2)[C@@H](O)[C@@]1(C)F [Compound 2A]
- efficacy [11]: high rate of efficacy
- safety and tolerability ([11]; up to 12 weeks): safe and well-tolerated

Structure (SMILES): C[C@@]1(F)[C@H](O)[C@@H](CO)O[C@H]1n1cnc2c(=O)[nH]c(N)nc21 [Compound 1-7, 2-amino-9-((2R,3R,4R,5R)-3-fluoro-4-hydroxy-5-(hydroxymethyl)-3-methyltetrahydrofuran-2-yl)-1,9-dihydro-6H-purin-6-one]
- concentration at 12 h [12]: 39 ng/mL
- AUC(0-t) ([12]; 30 mg/kg): 0.47 µM·h
- half-life ([12]; 30 mg/kg): 17 h
- Cmax [13]: 160 nM
- Tmax [13]: 2 h

Structure (SMILES): CC(C)OC(=O)[C@H](C)N[P@](=O)(OC[C@H]1O[C@@H](n2ccc(=O)[nH]c2=O)[C@](C)(F)[C@@H]1O)Oc1ccccc1 [sofosbuvir, reference compound]
- CC50 [14]: > 100 µM
- CC50 at 3 days [15]: > 100 µM
- CC50 at 3 days [16, 24]: > 100 µM
- CC50 at 3 days ([16]; uninfected BHK-21 cells, BHK-21, Table 5): > 100 µM
- CC50 [17]: > 100 µM
- EC50 [18, 25]: > 100 µM
- EC50 [18, 26]: > 100 µM
- EC50 ([18]; BHK-21, HCoV-229E in BHK-21, dye staining, average of 2 experiments, Table 5): > 100 µM
- EC50 ([19]; Table 3A): > 100 µM
- EC50 ([19]; Table 3B): > 100 µM

Structure (SMILES): CNc1nc(N)nc2c1ncn2[C@@H]1O[C@H](CO[P@](=O)(N[C@@H](C)C(=O)OC(C)C)Oc2ccccc2)[C@@H](O)[C@@]1(C)F [Compound 1B]
- CC50 [14]: > 100 µM
- CC50 at 3 days [15]: > 100 µM
- CC50 at 3 days [16, 24]: > 100 µM
- CC50 [17]: > 100 µM
- EC50 [18, 25]: 2.5 µM
- EC50 [18, 26]: 2.9 µM
- EC50 ([19]; Table 3A): 2 µM
- EC50 ([19]; Table 3B): 2.2 µM

Structure (SMILES): O=c1nc(NO)ccn1[C@@H]1O[C@H](CO)[C@@H](O)[C@H]1O [N^4-hydroxycytidine, reference compound]
- CC50 [20]: > 19 µM
- Selectivity Index [21]: >5.1
- EC90 ([21]; read-out: EC90 of the single replicates): 4.7 µM
- EC90 [21, 23]: 3.9 µM
